In ChEMBL document CHEMBL5442334, “ASAP - In vitro safety pharmacology profile” (2024):

Assays:
Details in all cases: Test compound concentration 10.0 uM
[1] = target: Glutamate NMDA receptor (Rattus norvegicus) (UniProt P35439+Q00959+Q00960+Q00961+Q62645+Q8VHN2+Q9R1M7); assay: SafetyScreen: Glutamate (NMDA, Non-Selective) Rat Ion Channel [3H] CGP-39653 Binding LeadHunter Assay, catalogue number: 66; format: protein-complex assay
[2] = target: T1, Endothelin-1 receptor (Homo sapiens) (UniProt P25101); assay: SafetyScreen: ETA Human Endothelin GPCR Binding Agonist Radioligand LeadHunter Assay, catalogue number: 54
T1 sequence (whole entry): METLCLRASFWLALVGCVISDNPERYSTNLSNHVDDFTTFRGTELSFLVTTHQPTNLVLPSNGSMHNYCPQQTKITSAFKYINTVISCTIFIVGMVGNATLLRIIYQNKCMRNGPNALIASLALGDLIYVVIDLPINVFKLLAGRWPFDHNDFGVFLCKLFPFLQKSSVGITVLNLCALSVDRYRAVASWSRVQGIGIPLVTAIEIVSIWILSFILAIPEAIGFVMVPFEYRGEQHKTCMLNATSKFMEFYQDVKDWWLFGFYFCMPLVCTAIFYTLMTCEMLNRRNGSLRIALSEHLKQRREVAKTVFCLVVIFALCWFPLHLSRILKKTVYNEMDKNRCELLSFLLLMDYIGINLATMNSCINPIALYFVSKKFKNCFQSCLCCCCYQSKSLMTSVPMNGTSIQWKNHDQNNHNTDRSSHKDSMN

Rattus norvegicus = species: Rattus norvegicus; assay: SafetyScreen: KV (Non-Selective) Rat Potassium Ion Channel [125I] alpha-Dendrotoxin Binding LeadHunter Assay, catalogue number: 166
[3] = target: T2, Prostaglandin G/H synthase 2 (Homo sapiens) (UniProt P35354); assay: SafetyScreen: COX2 Human Cyclooxygenase Enzymatic LeadHunter Assay, catalogue number: 4186; format: functional
T2 sequence (whole entry): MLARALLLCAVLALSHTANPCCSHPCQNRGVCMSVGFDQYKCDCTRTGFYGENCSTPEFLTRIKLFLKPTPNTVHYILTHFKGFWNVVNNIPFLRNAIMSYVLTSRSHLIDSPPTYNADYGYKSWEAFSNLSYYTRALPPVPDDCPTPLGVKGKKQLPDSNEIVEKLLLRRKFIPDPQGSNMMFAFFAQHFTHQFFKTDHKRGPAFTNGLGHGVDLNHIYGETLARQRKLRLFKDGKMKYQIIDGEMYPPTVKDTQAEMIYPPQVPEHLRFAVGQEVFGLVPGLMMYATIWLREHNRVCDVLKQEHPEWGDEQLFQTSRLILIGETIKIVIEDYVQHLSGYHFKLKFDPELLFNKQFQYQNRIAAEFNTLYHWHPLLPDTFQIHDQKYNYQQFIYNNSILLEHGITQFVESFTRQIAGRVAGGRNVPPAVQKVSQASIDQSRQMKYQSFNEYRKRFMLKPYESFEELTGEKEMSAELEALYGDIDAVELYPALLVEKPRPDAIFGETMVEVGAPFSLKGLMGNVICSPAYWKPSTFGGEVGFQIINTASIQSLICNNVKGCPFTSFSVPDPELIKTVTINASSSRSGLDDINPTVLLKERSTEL

[4] = target: GABA-A receptor; anion channel (Rattus norvegicus) (UniProt O09028+P15431+P18506+P18508+P19969+P20236+P23574+P23576+P28471+P28473+P30191+P62813+P63079+P63138+Q91ZM7+Q9ES14); assay: SafetyScreen: GABAA (Non-Selective) Rat Ion Channel [3H] Flunitrazepam Binding Agonist Radioligand LeadHunter Assay, catalogue number: 28; format: protein-complex assay
[5] = target: Acetylcholinesterase (Homo sapiens) (UniProt P22303); assay: SafetyScreen: Acetylcholinesterase Human Enzymatic LeadHunter Assay, catalogue number: 363; format: functional
Acetylcholinesterase (Homo sapiens), sequence (P22303 whole entry): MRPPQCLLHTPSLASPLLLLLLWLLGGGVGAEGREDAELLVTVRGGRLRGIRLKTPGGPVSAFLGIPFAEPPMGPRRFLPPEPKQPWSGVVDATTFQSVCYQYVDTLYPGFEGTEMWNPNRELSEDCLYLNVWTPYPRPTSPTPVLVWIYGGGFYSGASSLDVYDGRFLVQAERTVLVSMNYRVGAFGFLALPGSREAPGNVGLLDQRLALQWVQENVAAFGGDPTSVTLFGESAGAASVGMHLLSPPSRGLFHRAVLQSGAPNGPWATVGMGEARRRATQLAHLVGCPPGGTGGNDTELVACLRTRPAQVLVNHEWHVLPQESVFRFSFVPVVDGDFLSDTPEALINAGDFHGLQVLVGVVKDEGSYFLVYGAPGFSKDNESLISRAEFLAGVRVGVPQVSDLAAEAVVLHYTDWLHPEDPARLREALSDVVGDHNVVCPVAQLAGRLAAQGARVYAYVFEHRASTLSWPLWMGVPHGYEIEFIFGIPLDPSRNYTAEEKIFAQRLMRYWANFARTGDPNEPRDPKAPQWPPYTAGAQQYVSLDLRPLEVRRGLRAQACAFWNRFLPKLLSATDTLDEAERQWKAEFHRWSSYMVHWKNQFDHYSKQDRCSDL

[6] = target: 5-hydroxytryptamine receptor 1B (Homo sapiens) (UniProt P28222); assay: SafetyScreen: 5-HT1B Human Serotonin GPCR Binding Antagonist Radioligand LeadHunter Assay, catalogue number: 4376
5-hydroxytryptamine receptor 1B (Homo sapiens), sequence (P28222 whole entry): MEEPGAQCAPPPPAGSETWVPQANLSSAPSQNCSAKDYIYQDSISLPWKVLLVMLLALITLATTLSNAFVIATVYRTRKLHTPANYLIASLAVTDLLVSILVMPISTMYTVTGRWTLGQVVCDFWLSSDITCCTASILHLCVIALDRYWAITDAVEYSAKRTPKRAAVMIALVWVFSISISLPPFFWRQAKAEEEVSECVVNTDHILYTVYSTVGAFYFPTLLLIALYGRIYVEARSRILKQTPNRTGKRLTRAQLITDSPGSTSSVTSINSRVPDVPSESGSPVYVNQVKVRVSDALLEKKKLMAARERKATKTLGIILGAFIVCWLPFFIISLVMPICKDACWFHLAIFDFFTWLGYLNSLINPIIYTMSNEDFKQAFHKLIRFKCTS

[7] = target: T3, Androgen receptor (Homo sapiens) (UniProt P10275); assay: SafetyScreen: AR Human Androgen NHR Binding Agonist Radioligand LeadHunter Assay, catalogue number: 933
T3 sequence (whole entry): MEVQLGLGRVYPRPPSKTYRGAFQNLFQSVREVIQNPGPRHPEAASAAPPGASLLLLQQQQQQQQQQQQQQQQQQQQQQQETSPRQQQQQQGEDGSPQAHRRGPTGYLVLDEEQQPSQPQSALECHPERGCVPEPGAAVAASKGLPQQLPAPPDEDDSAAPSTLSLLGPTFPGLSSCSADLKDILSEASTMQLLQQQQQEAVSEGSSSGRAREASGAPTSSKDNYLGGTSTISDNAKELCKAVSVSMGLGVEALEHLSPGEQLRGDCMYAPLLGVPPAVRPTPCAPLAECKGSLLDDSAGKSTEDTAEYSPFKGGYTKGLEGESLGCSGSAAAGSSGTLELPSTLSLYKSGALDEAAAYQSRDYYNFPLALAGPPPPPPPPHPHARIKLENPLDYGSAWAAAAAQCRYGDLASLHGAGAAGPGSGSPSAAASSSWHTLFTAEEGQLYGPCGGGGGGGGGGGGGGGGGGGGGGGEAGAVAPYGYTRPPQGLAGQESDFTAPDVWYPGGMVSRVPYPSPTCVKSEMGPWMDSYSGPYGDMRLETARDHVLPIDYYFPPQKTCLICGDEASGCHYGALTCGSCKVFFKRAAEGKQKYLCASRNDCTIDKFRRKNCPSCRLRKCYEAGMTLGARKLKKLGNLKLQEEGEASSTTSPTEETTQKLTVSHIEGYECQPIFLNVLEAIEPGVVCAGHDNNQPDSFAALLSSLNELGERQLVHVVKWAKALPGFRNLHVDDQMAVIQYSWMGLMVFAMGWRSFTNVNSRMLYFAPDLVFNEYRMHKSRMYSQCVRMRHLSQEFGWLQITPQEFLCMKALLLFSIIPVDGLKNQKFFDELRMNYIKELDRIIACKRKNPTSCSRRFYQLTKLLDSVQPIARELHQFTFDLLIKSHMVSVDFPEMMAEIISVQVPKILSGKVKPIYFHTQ

[8] = target: Sodium-dependent noradrenaline transporter (Homo sapiens) (UniProt P23975); assay: SafetyScreen: NET Human Norepinephrine Transporter Binding Antagonist Radioligand LeadHunter Assay, catalogue number: 355
Sodium-dependent noradrenaline transporter (Homo sapiens), sequence (P23975 whole entry): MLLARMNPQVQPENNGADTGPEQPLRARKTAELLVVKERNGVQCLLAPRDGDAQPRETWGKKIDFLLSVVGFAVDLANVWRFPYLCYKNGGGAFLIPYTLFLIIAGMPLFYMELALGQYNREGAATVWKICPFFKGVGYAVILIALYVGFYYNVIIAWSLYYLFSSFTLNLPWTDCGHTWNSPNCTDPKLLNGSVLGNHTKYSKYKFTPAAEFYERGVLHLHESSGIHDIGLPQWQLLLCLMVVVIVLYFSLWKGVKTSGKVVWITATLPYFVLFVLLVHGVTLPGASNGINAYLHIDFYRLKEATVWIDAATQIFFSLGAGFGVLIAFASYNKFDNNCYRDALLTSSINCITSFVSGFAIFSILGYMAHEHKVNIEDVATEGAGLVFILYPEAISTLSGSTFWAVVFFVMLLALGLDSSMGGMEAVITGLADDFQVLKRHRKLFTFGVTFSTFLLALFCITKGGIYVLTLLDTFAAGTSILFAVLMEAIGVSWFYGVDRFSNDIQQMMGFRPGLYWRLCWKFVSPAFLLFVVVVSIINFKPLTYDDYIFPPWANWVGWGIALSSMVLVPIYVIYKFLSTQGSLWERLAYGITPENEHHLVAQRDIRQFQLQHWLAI

[9] = target: Vasopressin V1a receptor (Homo sapiens) (UniProt P37288); assay: SafetyScreen: V1A Human Vasopressin / Oxytocin GPCR Binding Agonist Radioligand LeadHunter Assay, catalogue number: 159
Vasopressin V1a receptor (Homo sapiens), sequence (P37288 whole entry, looked up): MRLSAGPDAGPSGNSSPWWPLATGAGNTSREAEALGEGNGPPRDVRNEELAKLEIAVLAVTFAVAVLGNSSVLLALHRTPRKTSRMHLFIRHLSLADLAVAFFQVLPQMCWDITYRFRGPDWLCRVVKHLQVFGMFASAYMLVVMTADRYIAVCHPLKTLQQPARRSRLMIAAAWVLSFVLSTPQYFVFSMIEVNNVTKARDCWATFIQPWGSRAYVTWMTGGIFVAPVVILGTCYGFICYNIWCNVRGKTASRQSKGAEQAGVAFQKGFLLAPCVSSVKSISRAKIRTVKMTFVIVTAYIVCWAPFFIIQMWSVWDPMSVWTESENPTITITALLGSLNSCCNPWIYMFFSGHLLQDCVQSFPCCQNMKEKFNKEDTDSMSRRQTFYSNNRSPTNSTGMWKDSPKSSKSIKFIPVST

[10] = target: cGMP-inhibited 3',5'-cyclic phosphodiesterase 3A (Homo sapiens) (UniProt Q14432); assay: SafetyScreen: PDE3A Human Phosphodiesterase Enzymatic LeadHunter Assay, catalogue number: 4072; format: functional
cGMP-inhibited 3',5'-cyclic phosphodiesterase 3A (Homo sapiens), sequence (Q14432 whole entry): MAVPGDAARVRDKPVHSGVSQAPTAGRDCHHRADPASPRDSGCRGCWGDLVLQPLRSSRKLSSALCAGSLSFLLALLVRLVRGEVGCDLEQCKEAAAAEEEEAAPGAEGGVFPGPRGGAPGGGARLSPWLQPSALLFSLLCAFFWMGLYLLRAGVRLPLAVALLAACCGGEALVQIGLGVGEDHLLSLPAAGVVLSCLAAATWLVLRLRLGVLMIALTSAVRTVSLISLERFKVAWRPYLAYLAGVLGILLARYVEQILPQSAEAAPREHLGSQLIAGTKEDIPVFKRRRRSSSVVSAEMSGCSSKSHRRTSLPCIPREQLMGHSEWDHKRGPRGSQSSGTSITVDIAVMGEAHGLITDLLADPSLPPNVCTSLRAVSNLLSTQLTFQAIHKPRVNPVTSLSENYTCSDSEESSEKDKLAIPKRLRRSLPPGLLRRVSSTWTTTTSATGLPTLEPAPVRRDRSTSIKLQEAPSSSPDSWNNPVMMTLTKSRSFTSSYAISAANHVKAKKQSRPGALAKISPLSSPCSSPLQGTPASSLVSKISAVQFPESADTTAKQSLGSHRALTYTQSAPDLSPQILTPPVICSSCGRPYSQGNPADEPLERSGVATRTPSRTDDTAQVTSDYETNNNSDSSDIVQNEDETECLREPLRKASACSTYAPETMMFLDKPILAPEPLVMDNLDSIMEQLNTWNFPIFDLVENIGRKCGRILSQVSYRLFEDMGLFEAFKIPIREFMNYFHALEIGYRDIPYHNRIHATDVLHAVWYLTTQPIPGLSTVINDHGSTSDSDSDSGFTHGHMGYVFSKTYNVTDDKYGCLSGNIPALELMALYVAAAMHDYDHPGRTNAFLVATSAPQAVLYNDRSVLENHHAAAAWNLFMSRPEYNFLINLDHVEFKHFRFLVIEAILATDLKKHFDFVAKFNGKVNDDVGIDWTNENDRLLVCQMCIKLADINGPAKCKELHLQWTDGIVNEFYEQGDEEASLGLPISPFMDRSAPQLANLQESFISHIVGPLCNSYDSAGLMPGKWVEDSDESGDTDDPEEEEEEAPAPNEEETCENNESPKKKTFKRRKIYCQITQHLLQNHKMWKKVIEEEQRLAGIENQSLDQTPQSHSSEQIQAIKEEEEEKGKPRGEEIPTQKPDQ

[11] = target: Beta-2 adrenergic receptor (Homo sapiens) (UniProt P07550); assay: SafetyScreen: beta2 Human Adrenoceptor GPCR Binding Antagonist Radioligand LeadHunter Assay, catalogue number: 20
Beta-2 adrenergic receptor (Homo sapiens), sequence (P07550 whole entry, looked up): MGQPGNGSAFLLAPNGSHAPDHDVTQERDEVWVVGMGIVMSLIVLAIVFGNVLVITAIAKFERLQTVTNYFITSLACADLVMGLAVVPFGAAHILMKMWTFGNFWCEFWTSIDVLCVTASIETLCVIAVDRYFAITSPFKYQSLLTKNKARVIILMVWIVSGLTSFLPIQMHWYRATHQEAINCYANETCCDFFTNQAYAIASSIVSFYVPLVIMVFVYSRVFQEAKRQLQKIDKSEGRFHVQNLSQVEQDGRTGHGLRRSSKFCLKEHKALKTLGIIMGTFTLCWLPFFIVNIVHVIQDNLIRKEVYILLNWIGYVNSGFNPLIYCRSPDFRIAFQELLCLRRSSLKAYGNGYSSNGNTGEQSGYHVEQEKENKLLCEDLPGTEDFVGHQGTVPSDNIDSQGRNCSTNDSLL

[12] = target: Prostaglandin G/H synthase 1 (Homo sapiens) (UniProt P23219); assay: SafetyScreen: COX1 Human Cyclooxygenase Enzymatic LeadHunter Assay, catalogue number: 4173; format: functional
Prostaglandin G/H synthase 1 (Homo sapiens), sequence (P23219 whole entry): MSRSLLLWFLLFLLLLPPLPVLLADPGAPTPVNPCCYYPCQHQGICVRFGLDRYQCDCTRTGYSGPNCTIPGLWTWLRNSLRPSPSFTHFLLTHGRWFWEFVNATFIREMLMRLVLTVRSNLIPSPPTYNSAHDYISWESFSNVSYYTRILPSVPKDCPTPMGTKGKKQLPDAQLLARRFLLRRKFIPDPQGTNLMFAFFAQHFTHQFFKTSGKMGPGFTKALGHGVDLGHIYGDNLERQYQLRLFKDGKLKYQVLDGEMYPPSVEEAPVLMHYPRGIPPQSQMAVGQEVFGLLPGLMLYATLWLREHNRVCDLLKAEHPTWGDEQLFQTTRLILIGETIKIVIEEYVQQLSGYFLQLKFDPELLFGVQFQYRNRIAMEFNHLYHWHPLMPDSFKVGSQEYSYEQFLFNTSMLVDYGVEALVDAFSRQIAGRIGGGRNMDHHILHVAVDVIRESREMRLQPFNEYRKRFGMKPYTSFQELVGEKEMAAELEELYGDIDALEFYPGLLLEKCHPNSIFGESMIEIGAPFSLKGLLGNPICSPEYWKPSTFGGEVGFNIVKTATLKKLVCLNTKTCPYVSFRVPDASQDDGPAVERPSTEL

CC(C)[C@@H](Nc1ncnc2[nH]c(-c3cnn(C)c3C#N)cc12)c1ccc2c(n1)OCCO2
inhibition [1]: 1% | inhibition [2]: 5% | inhibition (Rattus norvegicus): 2% | inhibition [3]: -7% | inhibition [4]: 8% | inhibition [5]: 22% | inhibition [6]: 4% | inhibition [7]: 12% | inhibition [8]: 4% | inhibition [9]: 20% | inhibition [10]: 37% | inhibition [11]: 3%

CNC(=O)Cn1cc(-c2cc3c(N[C@@H](c4ccc5c(c4)S(=O)(=O)CCC5)C(C)C)ncnc3[nH]2)cn1
inhibition [1]: -1% | inhibition [2]: -4% | inhibition (Rattus norvegicus): -2% | inhibition [3]: 27% | inhibition [4]: 35% | inhibition [12]: -8% | inhibition [5]: 13% | inhibition [6]: 0% | inhibition [7]: 0% | inhibition [8]: -7% | inhibition [9]: 15% | inhibition [10]: -9% | inhibition [11]: 0%

Cn1ncc(-c2cc3c(N[C@@H](c4ccc5c(n4)OCCO5)C(C)(C)C)ncnc3[nH]2)c1C#N
inhibition [1]: 11% | inhibition [2]: 9% | inhibition (Rattus norvegicus): 5% | inhibition [3]: -9% | inhibition [4]: -5% | inhibition [5]: 14% | inhibition [6]: 18% | inhibition [7]: 5% | inhibition [8]: 27% | inhibition [9]: 57% | inhibition [10]: 37% | inhibition [11]: 4%

C[C@H](C(=O)O)[C@@H](NC(=O)c1ncnc2[nH]ccc12)c1ccc(Br)cc1
inhibition [1]: 4% | inhibition [2]: -2% | inhibition (Rattus norvegicus): 0% | inhibition [3]: 7% | inhibition [4]: -4% | inhibition [12]: 14% | inhibition [5]: 12% | inhibition [6]: 1% | inhibition [7]: 12% | inhibition [8]: -6% | inhibition [9]: 62% | inhibition [10]: 52% | inhibition [11]: -8%

Cc1nn(C)cc1-c1cc2c(N[C@H](c3ccc4c(c3)S(=O)(=O)CCC4)C(C)C)ncnc2[nH]1
inhibition [1]: -2% | inhibition [2]: -4% | inhibition (Rattus norvegicus): 1% | inhibition [3]: 23% | inhibition [4]: 29% | inhibition [5]: 13% | inhibition [6]: 15% | inhibition [7]: 6% | inhibition [8]: -2% | inhibition [9]: 14% | inhibition [10]: 46% | inhibition [11]: -7%

COc1ccc([C@H](Cc2nnn[nH]2)NC(=O)c2ncnc3[nH]ccc23)cc1
inhibition [1]: 9% | inhibition [2]: 2% | inhibition (Rattus norvegicus): -1% | inhibition [3]: -1% | inhibition [4]: 0% | inhibition [12]: 17% | inhibition [5]: 11% | inhibition [7]: -2% | inhibition [8]: -5% | inhibition [9]: 5% | inhibition [10]: 62% | inhibition [11]: -6%

CC(C)[C@@H](Nc1ncnc2[nH]c(C(=O)N[C@@H]3CCN(C)C3)cc12)c1ccc2c(c1)S(=O)(=O)CCC2
inhibition [1]: 1% | inhibition [2]: -6% | inhibition (Rattus norvegicus): 2% | inhibition [3]: 4% | inhibition [4]: 38% | inhibition [12]: 44% | inhibition [5]: 28% | inhibition [6]: 17% | inhibition [7]: -5% | inhibition [8]: -1% | inhibition [9]: 6% | inhibition [10]: 4% | inhibition [11]: -3%

CNCc1cc(-c2cc3c(N[C@@H](c4ccc5c(c4)S(=O)(=O)CCC5)C(C)C)ncnc3[nH]2)co1
inhibition [1]: -1% | inhibition [2]: -1% | inhibition (Rattus norvegicus): 1% | inhibition [3]: 24% | inhibition [4]: 28% | inhibition [12]: -6% | inhibition [5]: 10% | inhibition [6]: 45% | inhibition [7]: 10% | inhibition [8]: 39% | inhibition [9]: 13% | inhibition [10]: -5% | inhibition [11]: 6%

CC(C)[C@H](Nc1ncnc2[nH]c(-c3cnn(C)c3C#N)cc12)c1ccc2c(n1)OCCO2
inhibition [1]: 2% | inhibition [2]: 42% | inhibition (Rattus norvegicus): 0% | inhibition [3]: -2% | inhibition [4]: -2% | inhibition [5]: 15% | inhibition [7]: -3% | inhibition [8]: 9% | inhibition [9]: 27% | inhibition [10]: 37% | inhibition [11]: 3%

CC(C)[C@H](Nc1ncnc2[nH]ccc12)c1ccc2c(c1)S(=O)(=O)CCC2
inhibition [1]: -1% | inhibition [2]: -1% | inhibition (Rattus norvegicus): -10% | inhibition [3]: 23% | inhibition [4]: 4% | inhibition [12]: 85% | inhibition [5]: 12% | inhibition [6]: 0% | inhibition [7]: 0% | inhibition [8]: -3% | inhibition [9]: 6% | inhibition [10]: 29% | inhibition [11]: -1%
